Converted amounts (≈) assume the structure as drawn. Peptide text beside a SMILES is read from it.
Key:
[1] = test system: LPS (endotoxin); assay: LPS neutralization assay (chromogenic LAL kit); format: biochemical
Method: LPS neutralization assay: LAL chromogenic kit (QCL 100 Cambrex, Walkersville, MD, USA) was used to determine endotoxin neutralization of the designed peptides following protocol of the vendor. LPS in Gram negative bacteria activates a proenzyme in limulus amoebocyte lysate (LAL). This activated enzyme in turn catalytically release a colored product pNA from the colorless substrate Ac-Ile-Glu-Ala-Arg-pNA which is detected spectrophotometrically at OD410. All peptides were dissolved in the pyrogen-free water supplied with the kit and pH was adjusted to 7.0 with 1N HCl or 1N NaOH (which is prepared in pyrogen-free water). The increasing concentrations of the peptides were incubated with three different concentrations of endotoxins, i.e., at 0.4, 0.8 and 1.0 endotoxin units (EU) in a total volume of 50 μL for 30 minutes at 37 °C. About 50 μL of LAL reagent was added to peptide-LPS complex and further incubated for 10 minutes followed by addition of 100 μL substrate. After incubation of six minutes for the reaction, the release of colored product was recorded at OD410. Water in the place of peptides served as negative control (blank) that is considered as 0% inhibition and percentage of LPS neutralization was calculated by: % of LPS neutralization = [(OD blank − OD peptide)/OD blank] × 100

[2] = test system: outer membrane of E. coli cells; assay: Outer membrane permeability assay (NPN dye); format: cell-based; settings: E. coli OD600 0.5, 10 μM NPN
Method: Outer membrane permeability assay: Outer membrane of Gram bacteria acts as permeability barrier for hydrophobic antibacterial compounds. […] E. coli cells were grown to mid logarithmic phase and diluted to an OD600nm of 0.5 in 10 mM sodium phosphate buffer, pH 7.0. The excitation was set at 350 nm and emission at 390–450 nm. NPN was added to the diluted cells at the concentration of 10 μM and a basal fluorescence was recorded followed by the addition of increasing concentration of peptides.

[3] = aqueous solution for NMR
Text: (§1) In addition, incorporation of disulfide bridges in AMPs may stabilize conformations and enhance cationicity and hydrophobicity required for enhanced activity. […] Residue Ile10 was chosen for Cys replacement since this residue is located at the exposed face of the β-strand of the YI12WF structure (Figure 1).
The solution conformations of YI13C, C4YI13C peptides were examined in free solution using two-dimensional ^1H-^1H NOESY and TOCSY experiments.

[4] = test system: E. coli cells; assay: Zeta potential measurements; format: cell-based; settings: 4 μM peptide; cells without peptide about −20.0 mV; OD600 0.2
Method: Zeta potential measurements: The zeta potential measurements were carried out on a Zetasizer Nano ZS (Malvern Instruments, Worcestershire, UK) equipped with a 633 nm He lasers. Mid-log phase grown bacterial cells were diluted to an OD600 of 0.2 and a basal measurement in the absence of peptides was acquired in disposable zeta cells with gold electrodes. Increasing concentrations of the designed peptides were then added to the cells and the measurements were made. A total of five measurements of 100 runs each were carried out for all dilutions.

[5] = test system: red blood cells; settings: mouse RBC ~4% (v/v) in PBS pH 7.0, 1 h, OD540, 1% Triton-X = positive control
Method: Hemolytic assay: Blood was collected from healthy mice in a tube containing EDTA. Cells with EDTA were centrifuged at 800 g for 10 min, to remove the buffy plasma coat layer, and washed three times in PBS (35 mM phosphate buffer, 150 mM NaCl, pH 7.0). 50 μL of RBC solution was added to equal volume of two-fold dilution of the peptides in 96-well micro titer plates and incubated for one hour. The final erythrocyte concentration estimated to be ~4% (v/v). After one hour, the mixture was centrifuged and the release of hemoglobin in the supernatant was determined spectrophotometrically at OD540. Buffer and 1% Triton-X in the place of peptides used as negative control and positive control, respectively. The percentage of hemolysis was calculated using the following method: Percentage of hemolysis = (OD peptide − OD buffer)/(OD Triton-X-OD buffer) × 100

[6] = Reverse phase HPLC retention time (hydrophobicity); format: physicochemical; parameters: unit not given beside the values; settings: C18 column (300 Å pore size, 5 μm particle size), linear gradient acetonitrile/water, higher Rt taken as more hydrophobic
Text: Materials: LPS of E. coli 0111:B4, FITC-LPS of E. coli 055:B5, acrylamide, NPN (1-N-phenylnaphthylamine) were purchased from Sigma (Saint Louis, MO, USA). All bacterial strains were obtained from the American Type Culture Collection (Manassas, VA, USA). Designed peptides were synthesized commercially by GL Biochem (Shanghai, China) and further purified by a reverse phase HPLC (Waters), using a C18 column (300 Å pore size, 5 μm particle size). The dimeric variants of β-boomerang lipopeptides were treated with 20% DMSO for 18 hours and the oxidized peptides were further purified by HPLC. A linear gradient of acetonitrile/water mixture was used for the purification and fractions eluting with higher purity were collected and freeze-dried.
as §1

[7] = test system: P.aeruginosa (ATCC 27853); assay: Antibacterial assay (MIC); format: cell-based; settings: 10 mM phosphate buffer pH 6.8, 3 h 37 °C, streaked on Mueller-Hinton agar
Method: (§2) Antibacterial assay: The minimum inhibitory concentration (MIC) of the designed peptides was determined against four Gram-negative strains (E. coli, P. aeruginosa ATCC 27853, K. pneumoniae ATCC 13883, S. enterica ATCC 14028) and four Gram-positive strains (B. subtilis, S. aureus ATCC 25923, S. pyogenes ATCC 19615 and E. faecalis ATCC 29212). In brief, mid logarithmic phase of overnight grown bacterial cultures were obtained in LB broth and adjusted to OD600 0.2 in 10 mM phosphate buffer, pH 6.8. About 50 μL of these cells were added to equal volume of designed peptides at two-fold dilutions in 96-well sterile polypropylene plates followed by incubation for 3hrs at 37 °C. Aliquots of the above titrated wells were streaked onto Mueller-Hinton agar plates and the concentration at which no visible bacterial growth was observed considered as the MIC value of the peptide.

[8] = test system: S.enterica (ATCC 14028); assay: Antibacterial assay (MIC); format: cell-based; settings: 10 mM phosphate buffer pH 6.8, 3 h 37 °C, streaked on Mueller-Hinton agar
Method: as §2

[9] = test system: E.faecalis (ATCC 29212); assay: Antibacterial assay (MIC); format: cell-based; settings: 10 mM phosphate buffer pH 6.8, 3 h 37 °C, streaked on Mueller-Hinton agar
Method: as §2

[10] = test system: K. pneumoniae (ATCC 13883); assay: Antibacterial assay (MIC); format: cell-based; settings: 10 mM phosphate buffer pH 6.8, 3 h 37 °C, streaked on Mueller-Hinton agar
Method: as §2

[11] = test system: E.coli (Lab strain); assay: Antibacterial assay (MIC); format: cell-based; settings: 10 mM phosphate buffer pH 6.8, 3 h 37 °C, streaked on Mueller-Hinton agar, no visible growth
Method: as §2

[12] = test system: S.pyogenes (ATCC 19615); assay: Antibacterial assay (MIC); format: cell-based; settings: 10 mM phosphate buffer pH 6.8, 3 h 37 °C, streaked on Mueller-Hinton agar
Method: as §2

[13] = test system: B.subtilis (Lab strain); assay: Antibacterial assay (MIC); format: cell-based; settings: 10 mM phosphate buffer pH 6.8, 3 h 37 °C, streaked on Mueller-Hinton agar
Method: as §2

[14] = test system: S.aureus (ATCC 25923); assay: Antibacterial assay (MIC); format: cell-based; settings: 10 mM phosphate buffer pH 6.8, 3 h 37 °C, streaked on Mueller-Hinton agar
Method: as §2

[15] = test system: LPS micelles; assay: Dynamic light scattering of LPS micelles; parameters: species or system E. coli 0111:B4; settings: DLS, 0.5 μM LPS, LPS:peptide 1:4; LPS alone 814 nm
Method: Dynamic light scattering measurements: LPS forms micelles of large sizes, which with the addition of increasing concentration of peptides, dissociates to smaller sizes. DLS measurements were made for 0.5 μM LPS and then with LPS: Peptide ratios of 1:2 and 1:4. The scattering was measured with Dynamic Light Scattering software provided with the instrument (Brookhaven Instruments Corp., Holtsville, NY, USA) and the scattering data was analyzed with CONTIN method.

[16] = test system: LPS micelles; assay: Isothermal titration calorimetry; format: binding, E. coli 0111:B4; settings: ITC
Method: Isothermal titration calorimetry: Binding of designed peptides with LPS micelles was determined using isothermal titration calorimetry in VP-ITC micro calorimeter (Microcal Inc, Northampton, MA, USA). Peptides and LPS samples were dissolved in 10 mM phosphate buffer, pH 7.0 and filtered. LPS at a concentration of 10 μM was loaded into the sample cell and the reference cell was filled with the same buffer. The syringe was filled with 1mM peptide solution. Typically 30 injections of 3.5 μL of the peptides were made into the sample cell at 25 °C. Sample cell was stirred continuously at 300 rpm. Raw data were obtained and analyzed using single site binding model in Microcal Origin 5.0 software. Association constant (Ka) and enthalpy change (ΔH) were directly determined from ITC profiles. Dissociation constant was calculated from Kd = 1/Ka. ΔG and TΔS were estimated from the fundamental equations of thermodynamics, ΔG = −RTlnKa and TΔS = (ΔH − ΔG), respectively.

[17] = 0.4 EU endotoxin, 1.0 μM peptide, 30 min 37 °C, OD410

Structure (SMILES): CCCCCCCC(=O)N[C@@H](Cc1ccc(O)cc1)C(=O)N[C@H](C(=O)N[C@@H](CC(C)C)C(=O)N[C@@H](Cc1c[nH]c2ccccc12)C(=O)N[C@@H](CCCCN)C(=O)N[C@@H](CCCNC(=N)N)C(=O)N[C@@H](CCCCN)C(=O)N[C@@H](CCCNC(=N)N)C(=O)N[C@@H](CCCCN)C(=O)N[C@@H](Cc1ccccc1)C(=O)N[C@@H](CSSC[C@H](NC(=O)[C@H](Cc1ccccc1)NC(=O)[C@H](CCCCN)NC(=O)[C@H](CCCNC(=N)N)NC(=O)[C@H](CCCCN)NC(=O)[C@H](CCCNC(=N)N)NC(=O)[C@H](CCCCN)NC(=O)[C@H](Cc1c[nH]c2ccccc12)NC(=O)[C@H](CC(C)C)NC(=O)[C@@H](NC(=O)[C@H](Cc1ccc(O)cc1)NC(=O)CCCCCCC)C(C)C)C(=O)N[C@@H](Cc1ccccc1)C(=O)N[C@H](C(N)=O)[C@@H](C)CC)C(=O)N[C@@H](Cc1ccccc1)C(=O)N[C@H](C(N)=O)[C@@H](C)CC)C(C)C [C8YI13C] (HELM PEPTIDE1{[CCCCCCCC(=O)[*:2]].Y.V.L.W.K.R.K.R.K.F.C.F.I.[am]}|PEPTIDE2{[CCCCCCCC(=O)[*:2]].Y.V.L.W.K.R.K.R.K.F.C.F.I.[am]}$PEPTIDE1,PEPTIDE2,12:R3-12:R3$$$V2.0)
- LPS neutralization [1, 17]: around 60%
- LPS neutralization ([1]; at increased peptide concentration, different LPS concentrations (0.4, 0.8, 1.0 EU), dose dependent): 80%
- NPN fluorescence intensity with increasing peptide (in words) [2]: continues to increase
- Solubility for NMR studies (in words) [3]: limited solubility
- Zeta potential of E. coli cells after peptide addition [4]: ~+24.0 mV
- % of hemolysis at 50 μM peptide concentration [5]: 21.5%
- Retention time (Rt) [6]: 37.40
- Minimum inhibitory concentration (MIC) [7]: 5 µM (≈ 19.1 µg/mL)
- Minimum inhibitory concentration (MIC) [8]: 50 µM (≈ 191 µg/mL)
- Minimum inhibitory concentration (MIC) [9]: 4 µM (≈ 15.3 µg/mL)
- Minimum inhibitory concentration (MIC) [10]: 12 µM (≈ 45.9 µg/mL)
- Minimum inhibitory concentration (MIC) [11]: 3 µM (≈ 11.5 µg/mL)
- Minimum inhibitory concentration (MIC) [12]: 50 µM (≈ 191 µg/mL)
- Minimum inhibitory concentration (MIC) [13]: 5 µM (≈ 19.1 µg/mL)
- Minimum inhibitory concentration (MIC) [14]: 5 µM (≈ 19.1 µg/mL)
- Diameter of LPS aggregates [15]: 385 nm

Structure (SMILES): CCCC(=O)N[C@@H](Cc1ccc(O)cc1)C(=O)N[C@H](C(=O)N[C@@H](CC(C)C)C(=O)N[C@@H](Cc1c[nH]c2ccccc12)C(=O)N[C@@H](CCCCN)C(=O)N[C@@H](CCCNC(=N)N)C(=O)N[C@@H](CCCCN)C(=O)N[C@@H](CCCNC(=N)N)C(=O)N[C@@H](CCCCN)C(=O)N[C@@H](Cc1ccccc1)C(=O)N[C@@H](CSSC[C@H](NC(=O)[C@H](Cc1ccccc1)NC(=O)[C@H](CCCCN)NC(=O)[C@H](CCCNC(=N)N)NC(=O)[C@H](CCCCN)NC(=O)[C@H](CCCNC(=N)N)NC(=O)[C@H](CCCCN)NC(=O)[C@H](Cc1c[nH]c2ccccc12)NC(=O)[C@H](CC(C)C)NC(=O)[C@@H](NC(=O)[C@H](Cc1ccc(O)cc1)NC(=O)CCC)C(C)C)C(=O)N[C@@H](Cc1ccccc1)C(=O)N[C@H](C(N)=O)[C@@H](C)CC)C(=O)N[C@@H](Cc1ccccc1)C(=O)N[C@H](C(N)=O)[C@@H](C)CC)C(C)C [C4YI13C] (HELM PEPTIDE1{[CCCC(=O)[*:2]].Y.V.L.W.K.R.K.R.K.F.C.F.I.[am]}|PEPTIDE2{[CCCC(=O)[*:2]].Y.V.L.W.K.R.K.R.K.F.C.F.I.[am]}$PEPTIDE1,PEPTIDE2,12:R3-12:R3$$$V2.0)
- LPS neutralization [1, 17]: ~ 40%
- LPS neutralization ([1]; 1.0 EU endotoxin, 1.0 μM peptide): 50%
- Zeta potential of E. coli cells after peptide addition [4]: about +19.1 mV
- % of hemolysis at 50 μM peptide concentration [5]: 14.1%
- Retention time (Rt) [6]: 31.62
- Minimum inhibitory concentration (MIC) [7]: 15 µM (≈ 55.7 µg/mL)
- Minimum inhibitory concentration (MIC) [8]: 50 µM (≈ 186 µg/mL)
- Minimum inhibitory concentration (MIC) [9]: 50 µM (≈ 186 µg/mL)
- Minimum inhibitory concentration (MIC) [10]: 8 µM (≈ 29.7 µg/mL)
- Minimum inhibitory concentration (MIC) [11]: 10 µM (≈ 37.1 µg/mL)
- Minimum inhibitory concentration (MIC) [12]: 50 µM (≈ 186 µg/mL)
- Minimum inhibitory concentration (MIC) [13]: 15 µM (≈ 55.7 µg/mL)
- Minimum inhibitory concentration (MIC) [14]: 50 µM (≈ 186 µg/mL)
- Diameter of LPS aggregates [15]: 331 nm
- Ka ([16]; 1 mM peptide into 10 μM LPS, 10 mM phosphate buffer pH 7.0, 25 °C, single site binding model): 2.2 µM⁻¹
- Kd ([16]; LPS micelles, pH 7.0, 25 °C, Kd = 1/Ka): 450 nM
